Here are results for eleven molecules from ChEMBL document CHEMBL2157914, “Synthesis, anti-inflammatory and antimicrobial evaluation of novel 1-acetyl-3,5-diaryl-4,5-dihydro (1H) pyrazole derivatives bearing urea, thiourea and sulfonamide moieties” (2012).

A word on the inhibition: it is the relative decrease from the control value, in per cent. By MIC is commonly meant the least concentration at which growth counts as inhibited. Lower therefore signals a more susceptible organism.

The structures appear in SMILES notation. Values after ≈ are worked out from the molar mass of the structure shown. Active and inactive are the calls of the source. No cut-off for these calls is given here.

Test [1] relates to THP-1. The test is described as follows: Antiinflammatory activity in human THP1 cells assessed as inhibition of LPS-stimulated IL-6 production at 1 uM incubated for 30 mins prior to LPS-challenge measured 24 hrs post LPS-challenge by ELISA. Type of test: functional. In general terms: In an ELISA, binding on a coated surface is turned into a signal by an enzyme label.
Test [2] has as its system THP-1. Kind of test: Antiinflammatory activity in human THP1 cells assessed as inhibition of LPS-stimulated TNFalpha production at 1 uM incubated for 30 mins prior to LPS-challenge measured 24 hrs post LPS-challenge by ELISA. Type of test: functional.
Test [3] concerns Fusarium solani. Kind of test: Antifungal activity against Fusarium solani MTCC 350 up to 200 ug/mL after 2 to 3 days by agar well diffusion method. Type of test: functional, organism-based. Background: In agar diffusion tests the substance spreads into inoculated agar from a disc or well.
Test [4] relates to Bacillus subtilis. Kind of test: Antibacterial activity against Bacillus subtilis MTCC 441 up to 200 ug/mL after 24 hrs by agar well diffusion method. The format is functional, organism-based.
The subject of test [5] is THP-1. The test is described as follows: Antiinflammatory activity in human THP1 cells assessed as inhibition of LPS-stimulated TNFalpha production at 10 uM incubated for 30 mins prior to LPS-challenge measured 24 hrs post LPS challenge by ELISA. Type of test: functional.
The test system of test [6] is Escherichia coli. Kind of test: Antibacterial activity against Escherichia coli MTCC 443 up to 200 ug/mL after 24 hrs by agar well diffusion method. The format is functional, organism-based.
In test [7] the test system is Salmonella typhimurium. Kind of test: Antibacterial activity against Salmonella typhimurium MTCC 98 up to 200 ug/mL after 24 hrs by agar well diffusion method. To be noted: Salmonella enterica subsp. enterica serovar Typhimurium. Type of test: functional, organism-based.
The subject of test [8] is THP-1. The test is described as follows: Antiinflammatory activity in human THP1 cells assessed as inhibition of LPS-stimulated IL-6 production at 10 uM incubated for 30 mins prior to LPS-challenge measured 24 hrs post LPS-challenge by ELISA. Type of test: functional.
Test [9] concerns Staphylococcus aureus. Kind of test: Antibacterial activity against Staphylococcus aureus MTCC 96 up to 200 ug/mL after 24 hrs by agar well diffusion method. The format is functional, organism-based.
The test system of test [10] is Aspergillus flavus. Kind of test: Antifungal activity against Aspergillus flavus MTCC 277 up to 200 ug/mL after 2 to 3 days by agar well diffusion method. Type of test: functional, organism-based.
The subject of test [11] is Candida albicans. Kind of test: Antifungal activity against Candida albicans MTCC 227 up to 200 ug/mL after 2 to 3 days by agar well diffusion method. The format is functional, organism-based.
For test [12], the system named is Aspergillus niger. The test is described as follows: Antifungal activity against Aspergillus niger MTCC 281 up to 200 ug/mL after 2 to 3 days by agar well diffusion method. Type of test: functional, organism-based.
Test [13] has as its system Escherichia coli. The test is described as follows: Antibacterial activity against Escherichia coli MTCC 443 after 24 hrs by agar well diffusion method. To be noted: MTCC 443, 24 h. The format is functional.
The subject of test [14] is Salmonella typhimurium. The test is described as follows: Antibacterial activity against Salmonella typhimurium MTCC 98 after 24 hrs by agar well diffusion method. The format is functional, Salmonella enterica subsp. enterica serovar Typhimurium. To be noted: Salmonella enterica, MTCC 98, 24 h.
Test [15] concerns Aspergillus niger. Kind of test: Antifungal activity against Aspergillus niger MTCC 281 after 2 to 3 days by agar well diffusion method. The format is functional.
Test [16] concerns Fusarium solani. The test is described as follows: Ratio of miconazole MIC to compound MIC for Fusarium solani MTCC 350. Type of test: functional.
Test [17] has as its system Aspergillus flavus. The test is described as follows: Antifungal activity against Aspergillus flavus MTCC 277 after 2 to 3 days by agar well diffusion method. The format is functional.
Test [18] deals with Aspergillus flavus. Kind of test: Ratio of miconazole MIC to compound MIC for Aspergillus flavus MTCC 277. The format is functional.
Test [19] deals with Candida albicans. The test is described as follows: Antifungal activity against Candida albicans MTCC 227 after 2 to 3 days by agar well diffusion method. Type of test: functional.
The test system of test [20] is Fusarium solani. Kind of test: Antifungal activity against Fusarium solani MTCC 350 after 2 to 3 days by agar well diffusion method. The format is functional.
Test [21] concerns Bacillus subtilis. The test is described as follows: Antibacterial activity against Bacillus subtilis MTCC 441 after 24 hrs by agar well diffusion method. Type of test: functional. As to conditions: MTCC 441, 24 h.
Test [22] relates to Staphylococcus aureus. Kind of test: Antibacterial activity against Staphylococcus aureus MTCC 96 after 24 hrs by agar well diffusion method. Type of test: functional. As to conditions: MTCC 96, 24 h.
Test [23] concerns Bacillus subtilis. Kind of test: Ratio of ciprofloxacin MIC to compound MIC for Bacillus subtilis MTCC 441. Type of test: functional.
Test [24] relates to Escherichia coli. The test is described as follows: Ratio of ciprofloxacin MIC to compound MIC for Escherichia coli MTCC 443. The format is functional.
Test [25] relates to Staphylococcus aureus. The test is described as follows: Ratio of ciprofloxacin MIC to compound MIC for Staphylococcus aureus MTCC 96. The format is functional.
The subject of test [26] is Salmonella typhimurium. Kind of test: Ratio of ciprofloxacin MIC to compound MIC for Salmonella typhimurium MTCC 98. The format is functional, Salmonella enterica subsp. enterica serovar Typhimurium.
Test [27] relates to Aspergillus niger. Kind of test: Ratio of miconazole MIC to compound MIC for Aspergillus niger MTCC 281. The format is functional.
The test system of test [28] is Candida albicans. The test is described as follows: Ratio of miconazole MIC to compound MIC for Candida albicans MTCC 227. The format is functional.

For the molecule `C[C@@H]1C[C@H]2[C@@H]3CCC4=CC(=O)C=C[C@]4(C)[C@@]3(F)[C@@H](O)C[C@]2(C)[C@@]1(O)C(=O)CO` [DEXAMETHASONE], the results for the inhibition at 1 µM in [1] and in test [2] were 84% and 76%, respectively.

For the molecule `COc1ccc(C2=NN(C(C)=O)C(c3ccc(NC(=S)Nc4cccc(C(F)(F)F)c4)cc3)C2)cc1OC` (stereo not drawn), the outcome in test [3], in [4], in [6], in [7], in [9] and in [10] was inactive. Moreover, the outcome in [11] and in test [12] was inactive. The inhibition at 10 µM in test [5] turned out to be 0%; in test [8], 8%.

Regarding `COc1ccc(C2=NN(C(C)=O)C(c3ccc(N)cc3)C2)cc1OC` (stereo not drawn), the outcome in test [3], in [4], in test [7], in test [9], in test [10] and in test [11] was inactive. Moreover, the outcome in test [12] was inactive. The inhibition at 10 µM in [5] and in test [8] was 0% throughout. For the same molecule, the MIC in test [13] turned out to be 90 mg/L (≈ 265 µM).

Take `COc1ccc(C2=NN(C(C)=O)C(c3ccc(NS(=O)(=O)c4ccc(C(F)(F)F)cc4)cc3)C2)cc1OC` (stereo not drawn): the minimal inhibitory concentration (MIC) in [14] was found to be 25 mg/L (≈ 45.7 µM); in [15] it was 20 mg/L (≈ 36.5 µM); in test [17], 10 mg/L (≈ 18.3 µM); in test [19] it was 35 mg/L (≈ 63.9 µM); in test [20] it was 10 mg/L (≈ 18.3 µM); in [13] it was 35 mg/L (≈ 63.9 µM). The MIC was 55 mg/L (≈ 100 µM) in test [21] and 70 mg/L (≈ 128 µM) in test [22]. Also, the inhibition at 10 µM in test [5] and in test [8] was 0% each time. In addition, the Ratio in test [16] is reported as 1.5; in [18], 2.

With `COc1ccc(C2=NN(C(C)=O)C(c3ccc(NS(=O)(=O)c4ccc(C(F)(F)F)cc4Cl)cc3)C2)cc1OC` (stereo not drawn), the minimal inhibitory concentration (MIC) in test [14] turned out to be 15 mg/L (≈ 25.8 µM); in test [15] it was 15 mg/L (≈ 25.8 µM); in test [17], 15 mg/L (≈ 25.8 µM); in test [19] it was 40 mg/L (≈ 68.7 µM); in test [20], 10 mg/L (≈ 17.2 µM); in test [13] it was 10 mg/L (≈ 17.2 µM). Moreover, the results for the MIC in test [21] and in test [22] were 10 mg/L (≈ 17.2 µM) and 15 mg/L (≈ 25.8 µM), respectively. Moreover, the Ratio in [23] amounted to 1.5; in [16], 1.3; in test [24], 1.5; in test [18], 1.5; in test [25], 1.3; in test [26], 1.3. For the same molecule, the inhibition at 10 µM in test [5] was 38%; in [8] it was 55%.

Take `COc1ccc(C2=NN(C(C)=O)C(c3ccc(NS(=O)(=O)c4ccc(C(F)(F)F)cc4Br)cc3)C2)cc1OC` (stereo not drawn): the MIC in test [14] was found to be 10 mg/L (≈ 16 µM); in [15], 10 mg/L (≈ 16 µM); in [17], 10 mg/L (≈ 16 µM); in test [19] it was 20 mg/L (≈ 31.9 µM); in [20] it was 10 mg/L (≈ 16 µM); in test [13], 10 mg/L (≈ 16 µM). For the same molecule, the minimum inhibitory concentration (MIC) turned out to be 15 mg/L (≈ 23.9 µM) in [21] and 10 mg/L (≈ 16 µM) in test [22]. In addition, the Ratio in [27] is on record as 1.5; in test [16], 1.5; in test [24], 1.5; in test [18] it was 2; in test [25], 2; in test [26], 2. The results for the inhibition at 10 µM in [5] and in test [8] were 0% and 8%, respectively.

For the molecule `COc1ccc(C2=NN(C(C)=O)C(c3ccc(NC(=S)Nc4ccc(C)cc4)cc3)C2)cc1OC` (stereo not drawn), the result in [3], in [4], in test [6], in test [7], in [9] and in test [10] was inactive. The result in test [11] and in test [12] was inactive. The values for the inhibition at 10 µM in test [5] and in test [8] were 0% and 3%, respectively.

In the case of `COc1ccc(C2=NN(C(C)=O)C(c3ccc(NC(=O)Nc4ccc(C(F)(F)F)cc4)cc3)C2)cc1OC` (stereo not drawn), the MIC in test [14] turned out to be 40 mg/L (≈ 76 µM); in test [15], 25 mg/L (≈ 47.5 µM); in test [17] it was 15 mg/L (≈ 28.5 µM); in test [19], 15 mg/L (≈ 28.5 µM); in test [20], 15 mg/L (≈ 28.5 µM); in test [13], 15 mg/L (≈ 28.5 µM). Besides, the minimum inhibitory concentration (MIC) in test [21] and in test [22] was 25 mg/L (≈ 47.5 µM) each time. The inhibition at 10 µM in test [5] amounted to 3%; in test [8], 21%. Also, the Ratio in [18] and in [28] was 1.3 in each case.

Consider `COc1ccc(C2=NN(C(C)=O)C(c3ccc(NC(=S)Nc4ccc(Cl)cc4)cc3)C2)cc1OC` (stereo not drawn), for which the inhibition at 10 µM in test [5] was determined as 68%; in [8] it was 76%. For the same molecule, the minimal inhibitory concentration (MIC) in [17], in test [19], in test [20] and in test [21] was 90 mg/L (≈ 177 µM) in each case. In addition, the outcome in test [6], in [7], in test [9] and in [12] was inactive.

`COc1ccc(C2=NN(C(C)=O)C(c3ccc(NC(=S)Nc4ccccc4C(F)(F)F)cc3)C2)cc1OC` (stereo not drawn): the outcome in [3], in test [4], in test [7], in test [9], in [10] and in test [11] was inactive. Further, the result in [12] was inactive. Besides, the inhibition at 10 µM in [5] worked out at 40%; in test [8], 65%. The minimum inhibitory concentration (MIC) in test [13] was found to be 95 mg/L (≈ 175 µM).

`COc1ccc(C2=NN(C(C)=O)C(c3ccc(NC(=O)Nc4ccc(C)c(C)c4)cc3)C2)cc1OC` (stereo not drawn): the result in test [4], in test [6], in test [7], in test [9] and in test [12] was inactive. The figures for the inhibition at 10 µM in test [5] and in test [8] were 18% and 30%, respectively. Also, the minimal inhibitory concentration (MIC) in test [17], in test [19] and in test [20] was 90 mg/L (≈ 185 µM) throughout.
